Laboratory results taken from patent publication US12030936B2, “Modulating the effects of gamma-c-cytokine signaling for the treatment of alopecia and alopecia associated disorders” (BIONIZ THERAPEUTICS, LLC, priority 2019, dated 2024).

What was measured:
IL-9 = experiment: PT-18β cell proliferation assay (WST-1), IL-9; assay type: cell-based, murine; settings: PT-18β cells, 1 nM cytokine, BNZ-γ as 1:20 or 1:60 dilution of HEK293T supernatant, 2 days
Text: (§1) For each of the six γc-cytokines, indicator cell lines: NK92, a human NK cell line NK92 available by American Type Culture Collection (ATCC) (catalog #CRL-2407), CTLL-2, a murine CD8 T cells line available from ATCC, and PT-18, a murine mast cell line and its subclone PT-18β, is transfected with human IL-2Rβ gene to make the cells responsive to IL-2 and IL-15 (Tagaya et al., 1996, EMBO J. 15:4928-39), and is used to quantitatively determine the γc-cytokine's growth-promoting activity (See Current protocols in Immunology from Wiley and Sons for a methodological reference).
(§2) Once the appropriate doses of the cytokine that yield the 50% and 95% maximum response from the indicator cell line is determined, various concentrations (ranging from 1 pM to 10 μM) of the purified or synthesized custom derivative peptide is added to each well containing the cytokine and indicator cells. The reduction in light absorbance at 450 nm is used as an indicator of inhibition of cytokine-stimulated cellular proliferation. Typically, the cells are stimulated by the cytokines such that the absorbance of the well containing indicator cell line and the cytokine is between 2.0 and 3.0, which is reduced to a range of 0.1 to 0.5 by the addition of inhibitory peptides. […]
(§3) The growth-responses of the cells were determined 2 days after the introduction of BNZ-γ peptide and the cytokine using the WST-1 assay. […]

IL-3 = experiment: PT-18β cell proliferation assay (WST-1), IL-3 as non-γc-cytokine negative control; assay type: cell-based, murine; settings: PT-18β cells, 1 nM cytokine, BNZ-γ as 1:20 or 1:60 dilution of HEK293T supernatant, 2 days
Text: as §1, §2, §3

IL-4 = experiment: PT-18β cell proliferation assay (WST-1), IL-4; assay type: cell-based, murine; settings: PT-18β cells, 1 nM cytokine, BNZ-γ as 1:20 or 1:60 dilution of HEK293T supernatant, 2 days
Text: as §1, §2, §3

IL-15 = experiment: PT-18β cell proliferation assay (WST-1), IL-15; assay type: cell-based, murine; settings: PT-18β cells, 1 nM cytokine, BNZ-γ as 1:20 or 1:60 dilution of HEK293T supernatant, 2 days
Text: as §1, §2, §3

humanized NSG mice [1] = tested on: humanized NSG mice
Protocol: In this experiment, NSG mice were transplanted with 2 million huPBMCs on study day 0, with therapeutic treatment beginning 35-days post-transplant. Mice were treated twice weekly with IV injections of PBS control (n=5), BNZ-γ at 2 mg/kg (n=5), anti-IL-2 antibody at 5 mg/kg (n=3), anti-IL-15 antibody at 5 mg/kg (n=3), or combination anti-IL-2 and anti-IL-15 antibody each at 5 mg/kg (n=3) starting on day 35 for a treatment duration of 4 weeks.
Levels of IL-6 and IFNγ were also measured in this experiment. […] Cytokine levels were determined using sera collected on day 50, except for one animal in the anti-IL-2 antibody treatment group (collected on day 45), one mouse in the PBS control untreated group (collected on day 45), and two mice from the PBS control untreated group (collected on day 40) to ensure a blood sample was collected before each became fatally ill.

humanized NSG mice [2] = experiment: Immunohistochemistry of humanized NSG mouse skin tissue for human CD8 T cells; assay type: in vivo; settings: 7-weeks post-transplant with vs without BNZ-γ treatment
Protocol: In order to characterize the nature of immune attack in the skin tissue and around the hair follicles, immunohistochemistry studies were conducted of the skin tissue of humanized NSG mice 3-weeks (pre-BNZ-γ) and 7-weeks (with or without BNZ-γ treatment) after transplantation of 2 million huPBMCs. The tissue was fixed for 24 hours in 4% formalin (Sigma) and then moved to 70% ethanol for at least 24 hours before being processed. Tissue was then embedded in paraffin following dehydration for two washes of two hours each in 70%, 90%, and 100% ethanol, then cleared in xylene twice for two hours each, and infiltrated with melted paraplast plus at 60 C two times for two hours. Paraffin embedded tissues were stored at room temperature prior to sectioning and staining. An anti-human CD8 antibody (BioCare Medical CRM 311C) or isotype control was used for staining of the tissues based on the standard procedure for IHC.

STAT5 = experiment: IL-15-stimulated tyrosine phosphorylation of STAT5 in PT-18β cells (anti-phospho-STAT5 immunoblot); assay type: cell-based, murine; settings: PT-18β cells stimulated by IL-15, presence vs absence of BNZ-γ peptide
Text: In addition to stimulating cellular proliferation, binding of the γc-cytokines to their receptors causes a diverse array of intracellular events. (Rochman et al. 2009 Nat. Rev. Immunol. 9:480-90, Pesu et al. 2005 Immunol. Rev. 203:127-142.) Immediately after the cytokine binds to its receptor, a tyrosine kinase called Jak3 (Janus-kinase 3) is recruited to the receptor at the plasma membrane. This kinase phosphorylates the tyrosine residues of multiple proteins including the γc-subunit, STAT5 (Signal Transducer and Activator of Transcription 5) and subunits of the PI3 (Phosphatidylinositol 3) kinase. Among these, the phosphorylation of STAT5 has been implicated in many studies as being linked to the proliferation of cells initiated by the γc-cytokine. (Reviewed in Hennighausen and Robinson, 2008 Genes Dev. 22:711-21.) In accordance with these published data, whether or not the BNZ-γ peptide inhibits the tyrosine phosphorylation of STAT5 molecule in PT-18β cells stimulated by IL-15 was examined (results shown in FIG. 4).
PT-18β cells were stimulated by IL-15 in the presence or absence of BNZ-γ peptide. Cytoplasmic proteins were extracted from the cells according to a conventional method as described in Tagaya et al. 1996 EMBO J. 15:4928-39. […]

[3] = sera collected on day 50 (some earlier), vs PBS control

## I-K-E-F-L-Q-R-F-I-H-I-V-Q-S-I-I-N-T-S (IKEFLQRFIHIVQSIINTS) [BNZ-γ, 19-mer artificial composite peptide combining the human IL-2 and IL-15 γc-box]
IL-9
  growth-promoting activity of IL-9: significantly (p<0.01 Student's T test) reduced
IL-3
  growth-promoting activity of IL-3: not inhibited
IL-4
  cellular proliferation stimulated by IL-4: not affected
IL-15
  growth-promoting activity of IL-15: significantly (p<0.01 Student's T test) reduced
Humanized NSG mice [1]; BNZ-γ 2 mg/kg IV twice weekly, 4 weeks from day 35, the words are printed of the combination, BNZ-γ being the more effective (p=0.001)
  survival of the BNZ-γ group relative to combination antibody treatment: less effective than BNZ-γ
Humanized NSG mice [1]; approximately two weeks after treatment was completed (~day 63), 4-week treatment from day 35
  regrowth of hair: greatest degree of hair regrowth of all 4 treatment groups
Humanized NSG mice [1]; [3]
  level of IFNγ in sera: most effective
  level of IL-6 in sera: most effective
Humanized NSG mice [2]
  number of infiltrated human CD8 T cells in skin tissue: significant reduction in the number of infiltrated CD8 cells
STAT5
  tyrosine phosphorylation of STAT5: markedly reduced
